Source: PubChem BioAssay (NCI)
“And” between values parts separate entries of the source, which are not always exact repeats. Identical values can stand only once.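 Following 48 hours of exposure in 96-well plates, responses at five concentrations were used to interpolate endpoints linearly. Here, GI50 denotes the concentration required for 50% inhibition of growth. At the TGI there is no net growth.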

What was measured:
Assay in all cases: NCI tumour cell line growth inhibition, 48 h
786-0 renal = test system: 786-0 renal
A498 renal = test system: A498 renal
A549 NSCLC = test system: A549 NSCLC
ACHN renal = test system: ACHN renal
CCRF-CEM leukemia = test system: CCRF-CEM leukemia
COLO 205 colon = test system: COLO 205 colon
DLD-1 colon = test system: DLD-1 colon
DMS 114 small cell lung = test system: DMS 114 small cell lung
DMS 273 small cell lung = test system: DMS 273 small cell lung
EKVX NSCLC = test system: EKVX NSCLC
HCC-2998 colon = test system: HCC-2998 colon
HCT-116 colon = test system: HCT-116 colon
HCT-15 colon = test system: HCT-15 colon
HL-60(TB) leukemia = test system: HL-60(TB) leukemia
HOP-18 NSCLC = test system: HOP-18 NSCLC
HOP-62 NSCLC = test system: HOP-62 NSCLC
HOP-92 NSCLC = test system: HOP-92 NSCLC
HT29 colon = test system: HT29 colon
IGROV1 ovarian = test system: IGROV1 ovarian
K-562 leukemia = test system: K-562 leukemia
KM20L2 colon = test system: KM20L2 colon
LOX IMVI melanoma = test system: LOX IMVI melanoma
LXFL 529 NSCLC = test system: LXFL 529 NSCLC
M14 melanoma = test system: M14 melanoma
M19-MEL melanoma = test system: M19-MEL melanoma
MALME-3M melanoma = test system: MALME-3M melanoma
MOLT-4 leukemia = test system: MOLT-4 leukemia
NCI-H226 lung = test system: NCI-H226 lung
NCI-H23 lung = test system: NCI-H23 lung
NCI-H460 lung = test system: NCI-H460 lung
NCI-H522 lung = test system: NCI-H522 lung
OVCAR-3 ovarian = test system: OVCAR-3 ovarian
OVCAR-4 ovarian = test system: OVCAR-4 ovarian
OVCAR-5 ovarian = test system: OVCAR-5 ovarian
OVCAR-8 ovarian = test system: OVCAR-8 ovarian
RPMI-8226 leukemia = test system: RPMI-8226 leukemia
RXF 393 renal = test system: RXF 393 renal
RXF-631 renal = test system: RXF-631 renal
SF-268 CNS = test system: SF-268 CNS
SF-295 CNS = test system: SF-295 CNS
SF-539 CNS = test system: SF-539 CNS
SK-MEL-2 melanoma = test system: SK-MEL-2 melanoma
SK-MEL-28 melanoma = test system: SK-MEL-28 melanoma
SK-MEL-5 melanoma = test system: SK-MEL-5 melanoma
SK-OV-3 ovarian = test system: SK-OV-3 ovarian
SN12C renal = test system: SN12C renal
SNB-19 CNS = test system: SNB-19 CNS
SNB-75 CNS = test system: SNB-75 CNS
SNB-78 CNS = test system: SNB-78 CNS
SR leukemia = test system: SR leukemia
SW-620 colon = test system: SW-620 colon
TK-10 renal = test system: TK-10 renal
U251 CNS = test system: U251 CNS
UACC-257 melanoma = test system: UACC-257 melanoma
UACC-62 melanoma = test system: UACC-62 melanoma
UO-31 renal = test system: UO-31 renal
XF 498 CNS = test system: XF 498 CNS
BT-549 breast = test system: BT-549 breast
CAKI-1 renal = test system: CAKI-1 renal
HS 578T breast = test system: HS 578T breast
MCF7 breast = test system: MCF7 breast
MDA-MB-231 breast = test system: MDA-MB-231 breast
MDA-MB-435 = test system: MDA-MB-435
MDA-N = test system: MDA-N
P388/ADR leukemia = test system: P388/ADR leukemia
PC-3 prostate = test system: PC-3 prostate
T-47D breast = test system: T-47D breast

Cc1cc(NC(=O)C2C3C=CC(O3)C2C(=O)O)no1 (stereo not given)
TGI (786-0 renal): 34900 nM
TGI (A498 renal): > 100000 nM
TGI (A549 NSCLC): > 100000 nM
TGI (ACHN renal): > 100000 nM
TGI (CCRF-CEM leukemia): 38500 nM
TGI (COLO 205 colon): 31500 nM
TGI (DLD-1 colon): 49200 nM
TGI (DMS 114 small cell lung): 29900 nM
TGI (DMS 273 small cell lung): 34200 nM
TGI (EKVX NSCLC): > 100000 nM
TGI (HCC-2998 colon): > 100000 nM
TGI (HCT-116 colon): 32000 nM
TGI (HCT-15 colon): 37400 nM
TGI (HL-60(TB) leukemia): 40000 nM
TGI (HOP-18 NSCLC): > 100000 nM
TGI (HOP-62 NSCLC): > 100000 nM
TGI (HOP-92 NSCLC): > 100000 nM
TGI (HT29 colon): > 100000 nM
TGI (IGROV1 ovarian): > 100000 nM
TGI (K-562 leukemia): 42500 nM
TGI (KM20L2 colon): 26600 nM
TGI (LOX IMVI melanoma): 29800 nM
TGI (LXFL 529 NSCLC): 46600 nM
TGI (M14 melanoma): > 100000 nM
TGI (M19-MEL melanoma): 77700 nM
TGI (MALME-3M melanoma): > 100000 nM
TGI (MOLT-4 leukemia): > 100000 nM
TGI (NCI-H226 lung): > 100000 nM
TGI (NCI-H23 lung): > 100000 nM
TGI (NCI-H460 lung): > 100000 nM
TGI (NCI-H522 lung): > 100000 nM
TGI (OVCAR-3 ovarian): > 100000 nM
TGI (OVCAR-4 ovarian): > 100000 nM
TGI (OVCAR-5 ovarian): > 100000 nM
TGI (OVCAR-8 ovarian): 32600 nM
TGI (RPMI-8226 leukemia): 37400 nM
TGI (RXF 393 renal): 31000 nM
TGI (RXF-631 renal): > 100000 nM
TGI (SF-268 CNS): 51900 nM
TGI (SF-295 CNS): > 100000 nM
TGI (SF-539 CNS): 54900 nM
TGI (SK-MEL-2 melanoma): > 100000 nM
TGI (SK-MEL-28 melanoma): > 100000 nM
TGI (SK-MEL-5 melanoma): > 100000 nM
TGI (SK-OV-3 ovarian): > 100000 nM
TGI (SN12C renal): > 100000 nM
TGI (SNB-19 CNS): > 100000 nM
TGI (SNB-75 CNS): > 100000 nM
TGI (SNB-78 CNS): > 100000 nM
TGI (SR leukemia): 42800 nM
TGI (SW-620 colon): 5920 nM
TGI (TK-10 renal): > 100000 nM
TGI (U251 CNS): 53800 nM
TGI (UACC-257 melanoma): 64000 nM
TGI (UACC-62 melanoma): > 100000 nM
TGI (UO-31 renal): > 100000 nM
TGI (XF 498 CNS): > 100000 nM

C=C1CC2CC[C@@]34CC5O[C@@H]6C(O[C@H]7CC[C@H](CC(=O)OC8C(C)C9OC%10C[C@]%11(C[C@@H]%12O[C@]%13(CC(C)[C@@H]%14O[C@H](C(O)CC(O)CO)C[C@@H]%14O%13)CC(C)[C@@H]%12O%11)OC%10CC9O[C@H]8C[C@H]8OC(CC[C@@H]1O2)C[C@@H](C)C8=C)OC7[C@@H]6O3)[C@H]5O4 (stereo not given in full)
TGI (786-0 renal): 1220 nM
TGI (A498 renal): 32.1 nM and 6.79 nM
TGI (A549 NSCLC): 2550 nM and 1650 nM
TGI (ACHN renal): 1280 nM
TGI (BT-549 breast): 2690 nM
TGI (CAKI-1 renal): 464 nM and 1540 nM
GI50 (DLD-1 colon): 0.255 nM
TGI (DLD-1 colon): 2550 nM
GI50 (DMS 114 small cell lung): 0.255 nM
TGI (DMS 114 small cell lung): 5.54 nM and 8.56 nM
TGI (EKVX NSCLC): 2850 nM
GI50 (HOP-92 NSCLC): 15.6 nM and 6.03 nM
GI50 (HS 578T breast): 0.182 nM
TGI (KM20L2 colon): 1.67 nM
TGI (MCF7 breast): 2550 nM and 21400 nM
GI50 (MDA-MB-231 breast): 2.67 nM
TGI (MDA-MB-435): 0.511 nM
GI50 (MDA-N): 0.0269 nM and 0.151 nM
TGI (MDA-N): 0.756 nM and 2.65 nM
TGI (NCI-H226 lung): 7.09 nM and 7.25 nM and 21.7 nM
TGI (NCI-H522 lung): 0.7 nM and 0.489 nM and 0.304 nM
TGI (OVCAR-4 ovarian): 838 nM and 2420 nM
TGI (OVCAR-5 ovarian): 7.64 nM
TGI (P388/ADR leukemia): 8.46 nM
GI50 (PC-3 prostate): 0.886 nM
TGI (SF-268 CNS): 2550 nM and 1470 nM
TGI (SF-539 CNS): 4.2 nM and 3.72 nM and 1.3 nM
TGI (SK-MEL-2 melanoma): 9.31 nM and 4.34 nM
GI50 (SK-MEL-28 melanoma): 1.01 nM
TGI (SN12C renal): 2550 nM and 6410 nM
TGI (SNB-19 CNS): 1820 nM
GI50 (SNB-78 CNS): 0.255 nM
TGI (SNB-78 CNS): 2550 nM
GI50 (SR leukemia): 0.0153 nM
TGI (SW-620 colon): 2550 nM
TGI (T-47D breast): 5320 nM
TGI (TK-10 renal): 16800 nM
TGI (UO-31 renal): 2460 nM
